From the NIST ThermoML archive (doi:10.1016/j.tca.2018.01.023)
Values joined by “and” are separate entries in the source; they are usually repeats but may differ in a detail not shown here. Equal entries are not always repeated.

Test: molar heat capacity at constant pressure
Conditions: 101.33 kPa, Crystal, Small sample (50 mg) DSC

[Ca+2].[O]=[Mo](=[O])([O-])[O-] [calcium molybdate(VI)]
Conditions | molar heat capacity at constant pressure
255.5 K | 107.3 J/K/mol
255.9 K | 107.4 J/K/mol
256.9 K | 107.5 J/K/mol
257.9 K | 107.6 J/K/mol
258.9 K | 107.7 J/K/mol
259.9 K | 107.8 J/K/mol
260.9 K | 107.8 J/K/mol
261.9 K | 107.9 J/K/mol
262.9 K | 108 J/K/mol
263.9 K | 108.2 J/K/mol
264.9 K | 108.3 J/K/mol
265.9 K | 108.4 J/K/mol
266.9 K | 108.6 J/K/mol
267.9 K | 108.8 J/K/mol
268.9 K | 109 J/K/mol
269.9 K | 109.2 J/K/mol
270.9 K | 109.4 J/K/mol
272 K | 109.6 J/K/mol
273 K | 109.8 J/K/mol
274 K | 110 J/K/mol
275 K | 110.3 J/K/mol
276 K | 110.5 J/K/mol
277 K | 110.7 J/K/mol
278 K | 111 J/K/mol
279 K | 111.2 J/K/mol
280 K | 111.5 J/K/mol
281 K | 111.6 J/K/mol
282 K | 111.8 J/K/mol
283 K | 112 J/K/mol
284 K | 112.2 J/K/mol
285 K | 112.3 J/K/mol
286 K | 112.5 J/K/mol
287 K | 112.7 J/K/mol
288 K | 112.9 J/K/mol
289 K | 113 J/K/mol
290.1 K | 113.2 J/K/mol
291.1 K | 113.4 J/K/mol
292.1 K | 113.6 J/K/mol
293.1 K | 113.8 J/K/mol
294.1 K | 114 J/K/mol
295.1 K | 114.1 J/K/mol
296.1 K | 114.3 J/K/mol
297.1 K | 114.5 J/K/mol
298.1 K | 114.6 J/K/mol
298.15 K | 114.2 J/K/mol
299.1 K | 114.8 J/K/mol
300.1 K | 115 J/K/mol
301.1 K | 115.1 J/K/mol
302.1 K | 115.3 J/K/mol
303.1 K | 115.4 J/K/mol
304.1 K | 115.6 J/K/mol
305.1 K | 115.7 J/K/mol
306.1 K | 115.9 J/K/mol
307.1 K | 116.1 J/K/mol
308.2 K | 116.2 J/K/mol
309.2 K | 116.4 J/K/mol
310 K | 116.5 J/K/mol
310.2 K | 116.5 J/K/mol
311.2 K | 116.7 J/K/mol
312.2 K | 116.8 J/K/mol
313.2 K | 116.9 J/K/mol
314.2 K | 117.1 J/K/mol
315 K | 117.3 J/K/mol
315.2 K | 117.3 J/K/mol
316.2 K | 117.4 J/K/mol
317.2 K | 117.6 J/K/mol
317.4 K | 117.7 J/K/mol
318.2 K | 117.8 J/K/mol
318.4 K | 118 J/K/mol
319.2 K | 117.9 J/K/mol
319.4 K | 118.2 J/K/mol
320 K | 118.1 J/K/mol
320.2 K | 118.1 J/K/mol
320.4 K | 118.4 J/K/mol
321.2 K | 118.3 J/K/mol
321.4 K | 118.5 J/K/mol
322.2 K | 118.5 J/K/mol
322.4 K | 118.6 J/K/mol
323.2 K | 118.6 J/K/mol
323.4 K | 118.8 J/K/mol
324.2 K | 118.7 J/K/mol
324.4 K | 118.9 J/K/mol
325 K | 118.8 J/K/mol
325.2 K | 118.8 J/K/mol
325.4 K | 119 J/K/mol
326.2 K | 119 J/K/mol
326.4 K | 119.1 J/K/mol
327.2 K | 119.1 J/K/mol
327.4 K | 119.2 J/K/mol
328.2 K | 119.2 J/K/mol
328.4 K | 119.4 J/K/mol
329.2 K | 119.3 J/K/mol
329.4 K | 119.5 J/K/mol
330 K | 119.5 J/K/mol
330.2 K | 119.5 J/K/mol
330.4 K | 119.6 J/K/mol
331.3 K | 119.7 J/K/mol
331.4 K | 119.7 J/K/mol
332.3 K | 119.9 J/K/mol
332.4 K | 119.8 J/K/mol
333.3 K | 120 J/K/mol
333.4 K | 120 J/K/mol
334.3 K | 120.1 J/K/mol
334.4 K | 120.1 J/K/mol
335 K | 120.2 J/K/mol
335.3 K | 120.2 J/K/mol
335.4 K | 120.3 J/K/mol
336.3 K | 120.3 J/K/mol
336.4 K | 120.4 J/K/mol
337.3 K | 120.5 J/K/mol
337.4 K | 120.6 J/K/mol
338.3 K | 120.6 J/K/mol
338.4 K | 120.7 J/K/mol
339.3 K | 120.7 J/K/mol
339.4 K | 120.9 J/K/mol
340 K | 120.9 J/K/mol
340.3 K | 120.8 J/K/mol
340.4 K | 121 J/K/mol
341.3 K | 121 J/K/mol
341.4 K | 121.1 J/K/mol
342.3 K | 121.2 J/K/mol
342.4 K | 121.2 J/K/mol
343.3 K | 121.4 J/K/mol
343.4 K | 121.4 J/K/mol
344.3 K | 121.5 J/K/mol
344.4 K | 121.5 J/K/mol
345 K | 121.5 J/K/mol
345.3 K | 121.7 J/K/mol
345.4 K | 121.6 J/K/mol
346.3 K | 121.8 J/K/mol
346.4 K | 121.8 J/K/mol
347.3 K | 121.9 J/K/mol
347.4 K | 122 J/K/mol
348.3 K | 122 J/K/mol
348.4 K | 122.3 J/K/mol
349.3 K | 122.1 J/K/mol
349.4 K | 122.6 J/K/mol
350 K | 122.2 J/K/mol
350.3 K | 122.2 J/K/mol
350.4 K | 122.6 J/K/mol
351.3 K | 122.3 J/K/mol
351.4 K | 122.6 J/K/mol
352.3 K | 122.4 J/K/mol
352.4 K | 122.5 J/K/mol
353.3 K | 122.5 J/K/mol
353.4 K | 122.5 J/K/mol
354.3 K | 122.7 J/K/mol
354.4 K | 122.6 J/K/mol
355 K | 122.8 J/K/mol
355.3 K | 122.8 J/K/mol
355.4 K | 122.7 J/K/mol
356.3 K | 122.9 J/K/mol
356.4 K | 123 J/K/mol
357.3 K | 123.1 J/K/mol
357.4 K | 123.2 J/K/mol
358.3 K | 123.3 J/K/mol
358.4 K | 123.4 J/K/mol
359.3 K | 123.4 J/K/mol
359.4 K | 123.5 J/K/mol
360 K | 123.4 J/K/mol
360.3 K | 123.6 J/K/mol
360.4 K | 123.6 J/K/mol
361.4 K | 123.7 J/K/mol
362.4 K | 123.8 J/K/mol
363.4 K | 123.9 J/K/mol
364.4 K | 124.1 J/K/mol and 124 J/K/mol
365 K | 124 J/K/mol
365.4 K | 124.2 J/K/mol and 124.1 J/K/mol
366.4 K | 124.3 J/K/mol and 124.2 J/K/mol
367.4 K | 124.4 J/K/mol and 124.3 J/K/mol
368.4 K | 124.5 J/K/mol and 124.4 J/K/mol
369.4 K | 124.6 J/K/mol
370 K | 124.6 J/K/mol
370.4 K | 124.7 J/K/mol
371.4 K | 124.8 J/K/mol and 124.9 J/K/mol
372.4 K | 125 J/K/mol
373.4 K | 125.1 J/K/mol
374.4 K | 125.2 J/K/mol
375 K | 125.2 J/K/mol
375.4 K | 125.3 J/K/mol
376.4 K | 125.4 J/K/mol
377.4 K | 125.6 J/K/mol and 125.5 J/K/mol
378.4 K | 125.7 J/K/mol and 125.5 J/K/mol
379.4 K | 125.9 J/K/mol and 125.6 J/K/mol
380 K | 125.8 J/K/mol
380.4 K | 126 J/K/mol and 125.7 J/K/mol
381.4 K | 126.1 J/K/mol and 125.8 J/K/mol
382.4 K | 126.2 J/K/mol and 125.9 J/K/mol
383.4 K | 126.3 J/K/mol and 126 J/K/mol
384.4 K | 126.3 J/K/mol and 126.2 J/K/mol
385 K | 126.3 J/K/mol
385.4 K | 126.4 J/K/mol and 126.3 J/K/mol
386.4 K | 126.4 J/K/mol
387.4 K | 126.5 J/K/mol
388.4 K | 126.6 J/K/mol and 126.7 J/K/mol
389.4 K | 126.8 J/K/mol
390 K | 126.8 J/K/mol
390.4 K | 126.9 J/K/mol and 126.8 J/K/mol
391.4 K | 127.1 J/K/mol
391.5 K | 126.9 J/K/mol
392.4 K | 127.2 J/K/mol
392.5 K | 127 J/K/mol
393.4 K | 127.3 J/K/mol
393.5 K | 127.1 J/K/mol
394.4 K | 127.4 J/K/mol
394.5 K | 127.2 J/K/mol
395 K | 127.4 J/K/mol
395.4 K | 127.5 J/K/mol
